Molecules are shown by their SMILES.

The term melting point denotes the temperature of the solid-liquid transition. Compound `Cc1ccc(-c2cc(F)c(F)cc2-c2ccc(S(C)(=O)=O)cc2)cc1` [Example 23, 1,2-Difluoro-4-(4-methylphenyl)-5-[4-(methylsulfonyl)phenyl]benzene] gave a melting point of 147 to 148 °C.
Compound `NS(=O)(=O)c1ccc(-c2ccccc2-c2ccc(Cl)cc2)cc1` [Example 3, 4-[2-(4-Chlorophenyl)phenyl]benzenesulfonamide] showed a melting point of 206.2 to 207 °C.
In the case of `Cc1ccc(-c2cc(F)c(F)cc2-c2ccc(S(C)(=O)=O)cc2)cn1` [Example 47, 5-[4,5-Difluoro-4′-(methylsulfonyl)-(1,1′-biphenyl)-2-yl]-2-methylpyridine], the melting point was in the range of 141 to 142.5 °C.
As to `COc1ccc(-c2cc(F)c(F)cc2-c2ccc(S(C)(=O)=O)cc2)cc1C` [Example 35, 1,2-Difluoro-4-(4-methoxy-3-methylpheny)-5-[4-(methylsulfonyl)phenyl]benzene], the melting point was 160.5 to 161.5 °C.

For the origin of these results see patent US6677488B2, “Substituted biphenyl compounds for the treatment of inflammation” (G.D. Searle & Co., priority 1995, dated 2004).
